BindingDB's records for doi:10.1016/s0014-2999(98)00159-9 (Novartis Pharma, 1998)
Several values for one entry are separate records, joined by “and”; a condition that tells them apart may be missing. Identical values can stand only once. Where a SMILES comes first, the peptide text is derived from it. Bridges are numbered along the chain shown (N, C = ends). [ ]: non-standard residue; d: D form. The star is where a group is joined. d1Nal = N[C@H](Cc1cccc2ccccc12)C(=O)O; Ahp = NCCCCCCC(=O)O; Bn = c1ccc(C*)cc1

Target: Somatostatin receptor type 5 (Homo sapiens, UniProt P35346)
Sequence (P35346 whole entry): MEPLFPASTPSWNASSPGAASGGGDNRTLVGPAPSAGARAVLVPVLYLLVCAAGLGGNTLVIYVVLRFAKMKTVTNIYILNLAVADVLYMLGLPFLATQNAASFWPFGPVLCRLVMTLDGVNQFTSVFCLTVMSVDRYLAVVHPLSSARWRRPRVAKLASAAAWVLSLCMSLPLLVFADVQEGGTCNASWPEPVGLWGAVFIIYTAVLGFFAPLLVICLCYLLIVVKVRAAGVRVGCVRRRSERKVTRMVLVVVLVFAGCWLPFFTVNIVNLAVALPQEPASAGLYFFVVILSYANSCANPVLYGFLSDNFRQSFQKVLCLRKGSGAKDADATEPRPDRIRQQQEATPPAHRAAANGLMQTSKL

Row | SMILES | Ki
1 | C[C@@H](O)[C@@H]1NC(=O)[C@H](CCCCN)NC(=O)[C@H](Cc2c[nH]c3ccccc23)NC(=O)[C@H](Cc2ccccc2)NC(=O)[C@H](Cc2ccccc2)NC(=O)[C@H](CC(N)=O)NC(=O)[C@H](CCCCN)NC(=O)[C@@H](NC(=O)[C@@H]2CCCN2)CSSC[C@@H](C(=O)N[C@@H](CCCCN)C(=O)O)NC(=O)[C@H](CO)NC(=O)[C@H](CO)NC(=O)[C@H](Cc2ccccc2)NC1=O [CORTISTATIN-14] (H-PCKNFFWKTFSSCK-OH; disulfide 2-13) | 0.57 nM and 1.94 nM and 0.45 nM

Target: Somatostatin receptor type 2 (Homo sapiens, UniProt P30874)
Sequence (P30874 whole entry): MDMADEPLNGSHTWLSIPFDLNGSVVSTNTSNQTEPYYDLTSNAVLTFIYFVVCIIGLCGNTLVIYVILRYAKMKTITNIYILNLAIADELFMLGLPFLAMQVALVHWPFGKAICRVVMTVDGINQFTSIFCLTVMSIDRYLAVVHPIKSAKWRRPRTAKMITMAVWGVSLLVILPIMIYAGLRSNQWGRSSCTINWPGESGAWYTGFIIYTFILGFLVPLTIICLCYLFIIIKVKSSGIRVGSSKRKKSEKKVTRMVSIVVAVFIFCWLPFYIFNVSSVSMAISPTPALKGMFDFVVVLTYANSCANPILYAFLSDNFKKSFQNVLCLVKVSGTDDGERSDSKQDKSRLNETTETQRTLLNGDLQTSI

Row | SMILES | Ki
2 | C[C@@H](O)[C@@H]1NC(=O)[C@H](CCCCN)NC(=O)[C@@H](Cc2c[nH]c3ccccc23)NC(=O)[C@H](Cc2ccccc2)NC(=O)[C@@H]2CCCN2C(=O)[C@H](Cc2ccccc2)NC1=O (cyclo(PF[dW]KTF)) | 5.24 nM and 4.07 nM and 4.78 nM and 0.53 nM
3 | CC(C)[C@@H]1NC(=O)[C@H](CCCCN)NC(=O)[C@@H](Cc2c[nH]c3ccccc23)NC(=O)[C@H](Cc2ccc(O)cc2)NC(=O)[C@@H](NC(=O)[C@H](N)Cc2ccc3ccccc3c2)CSSC[C@@H](C(=O)N[C@H](C(N)=O)[C@@H](C)O)NC1=O [3-(2-Naphtyl)-D-Ala-L-Cys(1)-L-Tyr-D-Trp-L-Lys-L-Val-L-Cys(1)-L-Thr-NH2] | 0.53 nM and 1.38 nM and 0.28 nM and 0.21 nM
4 | CC(C)[C@H](NC(=O)[C@H](CCCCN)NC(=O)[C@@H](Cc1c[nH]c2ccccc12)NC(=O)[C@H](Cc1ccc(O)cc1)NC(=O)[C@H](Cc1ccccc1)NC(=O)[C@H](N)Cc1ccccc1)C(=O)N[C@@H](Cc1ccccc1)C(=O)N[C@H](Cc1cccc2ccccc12)C(N)=O [BIM 23056] (H-[dF]FY[dW]KVF[d1Nal]-NH2) | 468 nM and 724 nM and 417 nM and 224 nM
5 | C[C@@H](O)[C@H](NC(=O)[C@H](Cc1ccccc1)NC(=O)[C@@H](NC(=O)[C@H](CCCCN)NC(=O)[C@@H](Cc1c[nH]c2ccccc12)NC(=O)[C@H](Cc1ccccc1)NC(=O)[C@H](Cc1ccccc1)NC(=O)[C@H](N)Cc1ccccc1)[C@@H](C)O)C(N)=O [CAS_133073-82-2] (H-[dF]FF[dW]KTFT-NH2) | 1.73 nM and 5.01 nM and 16.6 nM and 2.81 nM and 1.86 nM
6 | C[C@@H](O)[C@@H]1NC(=O)[C@H](CCCCN)NC(=O)[C@H](Cc2c[nH]c3ccccc23)NC(=O)[C@H](Cc2ccccc2)NC(=O)[C@H](Cc2ccccc2)NC(=O)[C@H](CC(N)=O)NC(=O)[C@H](CCCCN)NC(=O)[C@@H](NC(=O)[C@@H]2CCCN2)CSSC[C@@H](C(=O)N[C@@H](CCCCN)C(=O)O)NC(=O)[C@H](CO)NC(=O)[C@H](CO)NC(=O)[C@H](Cc2ccccc2)NC1=O [CORTISTATIN-14] (H-PCKNFFWKTFSSCK-OH; disulfide 2-13) | 0.91 nM and 1.77 nM and 4.46 nM
7 | C[C@@H](O)[C@@H]1NC(=O)[C@H](CCCCN)NC(=O)[C@@H](Cc2c[nH]c3ccccc23)NC(=O)[C@H](Cc2c[nH]c3ccccc23)NC(=O)[C@H](Cc2ccccc2)NC(=O)CCCCCCNC(=O)[C@H](Cc2ccccc2)NC1=O [L-362855] (cyclo([Ahp]FW[dW]KTF)) | 2.04 nM and 4.36 nM and 1.62 nM
8 | C[C@@H](OCc1ccccc1)[C@@H]1NC(=O)[C@H](CCCCN)NC(=O)[C@@H](Cc2c[nH]c3ccccc23)NC(=O)[C@H](Cc2ccccc2)NC(=O)CCCCCCNC1=O [c[Aha-Phe-D-Trp-Lys-Thr(Bzl)]] (cyclo([Ahp]F[dW]KT(Bn))) | 1580 nM and 3980 nM and 3720 nM and 1700 nM and 1260 nM
